From US5776943A, “Rapamycin metabolites” (American Home Products Corporation, priority 1991, dated 1998)
Read-outs that look alike come from different tables or passages of the source.

Tested on: Human lymphocytes
Experiment: PHA-stimulated human lymphocyte proliferation (3H-thymidine incorporation)
Format: cell-based
Experimental: Immunosuppressive activity of the collected fractions was evaluated in an in vitro standard pharmacological test procedure designed to measure lymphocyte proliferation. The procedure used is briefly described below.
Human lymphocytes were isolated from blood anticoagulated with heparin. Blood was centrifuged with ficoll at 545 g at room temperature for 20 min. The lymphocyte layer was washed with phosphate buffered saline by centrifugation at 280 g for 10 min and subsequently with the culture medium (430 g, 10 min). The cells were adjusted to a concentration of 10^6 cells/mL with RPMI 1640 medium supplemented with 2 mM glutamine, 100 U/mL penicillin, 100 μg streptomycin and 10% fetal calf serum. For each fraction evaluated, the 1 g/L solution in methanol was diluted with culture medium to provide a concentration of 1 mg/L. The concentration of metabolite in each fraction was determined by HPLC comparison with an external rapamycin standard curve. A solution composed of 100 μL of the cell suspension, containing 5 mg/L PHA, and 100 μL of the metabolite solution were pipetted into the wells of a 96-well plate. The cells were incubated for 44 h at 37° C. in a 5% CO2 atmosphere. After addition of 1 μCi ^3 H-thymidine/well the cells were incubated for additional 4.5 h. […] The thawed cells were harvested and ^3 H-thymidine incorporation was determined by liquid scintillation counting.

Row | Compound | IC50 (lymphocyte proliferation, human lymphocytes from heparin blood, PHA, incubated 44 h at 37° C., then 3H-thymidine 4.5 h, read-out: IC50) | IC50 (Homo sapiens, Lymphocyte)
1 | CO[C@H]1C[C@@H]2CC[C@@H](C)[C@@](O)(O2)C(=O)C(=O)N2CCCC[C@H]2C(=O)O[C@H]([C@H](C)C[C@@H]2CC[C@@H](O)[C@H](O)C2)CC(=O)[C@H](C)/C=C(\C)[C@@H](O)[C@@H](OC)C(=O)[C@H](C)C[C@H](C)/C=C/C=C/C=C/1C [Example 1, 41-O-Desmethyl rapamycin] | 1 nM | 
2 | CO[C@H]1C[C@@H]2CC[C@@H](C)[C@@](O)(O2)C(=O)C(=O)N2CCCC[C@H]2C(=O)O[C@H]([C@H](C)C[C@@H]2CC[C@@H](O)[C@H](OC)C2)CC(=O)[C@H](C)/C=C(\C)[C@@H](O)[C@@H](OC)C(=O)[C@H](C)C[C@H](C)/C=C/C=C/C=C/1C [Rapamycin, rapamycin] |  | 0.1 nM
